What was measured:
SN-38 = compound: CCc1c2c(nc3ccc(O)cc13)-c1cc3c(c(=O)n1C2)COC(=O)[C@]3(O)CC [SN-38]; conditions: max 0.3 µM
Outline: (§1)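 In 1536-well plates, cancer cell lines in 7.5 μl DMEM/F12 or RPMI with 10% FBS spent 24 hours at 37°C and 5% CO2 and were then dosed for 72 hours with final DMSO typically 0.2%. Viability was read by CellTiter-Glo 2.0 luminescence and scaled between blank-well and DMSO-well means. The single-agent IC50 was fitted from dose responses using a logistic curve in a non-linear mixed effects model, and that logistic curve had two parameters.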

AZD8186 = compound: C[C@@H](Nc1cc(F)cc(F)c1)c1cc(C(=O)N(C)C)cc2c(=O)cc(N3CCOCC3)oc12 [AZD8186]; conditions: max 10 µM
Outline: as §1

Alisertib = compound: COc1cc(Nc2ncc3c(n2)-c2ccc(Cl)cc2C(c2c(F)cccc2OC)=NC3)ccc1C(=O)O [Alisertib]; conditions: max 10 µM
Outline: as §1

Crizotinib = compound: C[C@@H](Oc1cc(-c2cnn(C3CCNCC3)c2)cnc1N)c1c(Cl)ccc(F)c1Cl [Crizotinib]; conditions: max 10 µM
Outline: as §1

AZD1775 = compound: C=CCn1c(=O)c2cnc(Nc3ccc(N4CCN(C)CC4)cc3)nc2n1-c1cccc(C(C)(C)O)n1 [AZD1775]; conditions: max 3 µM
Outline: as §1

AZD1390 = compound: CC(C)n1c(=O)n(C)c2cnc3cc(F)c(-c4ccc(OCCCN5CCCCC5)nc4)cc3c21 [AZD1390]; conditions: max 0.3 µM
Outline: as §1

AZD0156 = compound: CN(C)CCCOc1ccc(-c2ccc3ncc4c(c3c2)n(C2CCOCC2)c(=O)n4C)cn1 [AZD0156]; conditions: max 3 µM
Outline: as §1

Taselisib = compound: Cc1nc(-c2cn3c(n2)-c2ccc(-c4cnn(C(C)(C)C(N)=O)c4)cc2OCC3)n(C(C)C)n1 [Taselisib]; conditions: max 10 µM
Outline: as §1

Etoposide = compound: COc1cc([C@@H]2c3cc4c(cc3[C@@H](O[C@@H]3O[C@@H]5CO[C@@H](C)O[C@H]5[C@H](O)[C@H]3O)[C@H]3COC(=O)[C@H]23)OCO4)cc(OC)c1O [Etoposide]; conditions: max 10 µM
Outline: as §1

Gefitinib = compound: COc1cc2ncnc(Nc3ccc(F)c(Cl)c3)c2cc1OCCCN1CCOCC1 [Gefitinib]; conditions: max 10 µM
Outline: as §1

AZD5363 = compound: C1CN(CCC1(C(=O)N[C@@H](CCO)C2=CC=C(C=C2)Cl)N)C3=NC=NC4=C3C=CN4 [AZD5363]; conditions: max 10 µM
Outline: as §1

AZD5153 = compound: COc1nnc2ccc(N3CCC(c4ccc(OCCN5CCN(C)C(=O)[C@H]5C)cc4)CC3)nn12 [AZD5153]; conditions: max 1 µM
Outline: as §1

Paclitaxel = compound: CC(=O)O[C@H]1C(=O)[C@@]2(C)[C@H]([C@H](OC(=O)c3ccccc3)[C@]3(O)C[C@H](OC(=O)[C@H](O)[C@@H](NC(=O)c4ccccc4)c4ccccc4)C(C)=C1C3(C)C)[C@]1(OC(C)=O)CO[C@@H]1C[C@@H]2O [Paclitaxel]; conditions: max 3 µM
Outline: as §1

SG3199 = compound: CC1=CN2[C@@H](C1)C=NC3=CC(=C(C=C3C2=O)OC)OCCCCCOC4=C(C=C5C(=C4)N=C[C@@H]6CC(=CN6C5=O)C)OC [SG3199]; conditions: max 0.001 µM
Outline: as §1

Olaparib = compound: O=C(c1cc(Cc2n[nH]c(=O)c3ccccc23)ccc1F)N1CCN(C(=O)C2CC2)CC1 [Olaparib]; conditions: max 10 µM
Outline: as §1

AZD5991 = compound: Cc1c2c(nn1C)CSCc1cc(n(C)n1)CSc1cc(c3ccccc3c1)OCCCc1c(C(=O)O)n(C)c3c-2c(Cl)ccc13 [AZD5991]; conditions: max 1 µM
Outline: as §1

Lapatinib = compound: CS(=O)(=O)CCNCc1ccc(-c2ccc3ncnc(Nc4ccc(OCc5cccc(F)c5)c(Cl)c4)c3c2)o1 [Lapatinib]; conditions: max 10 µM
Outline: as §1

AZD4320 = compound: CN(CC[C@H](CSC1=CC=CC=C1)NC2=C(C=C(C=C2)S(=O)(=O)NC(=O)C3=CC=C(C=C3)N4CCC(CC4)[C@H](C5=CC=CC=C5C6=CC=C(C=C6)Cl)O)S(=O)(=O)C(F)(F)F)CCO [AZD4320]; conditions: max 1 µM
Outline: as §1

SRA737 = compound: N#Cc1cnc(Nc2cc(NC[C@H]3CNCCO3)c(C(F)(F)F)cn2)cn1 [SRA737]; conditions: max 10 µM
Outline: as §1

Dasatinib = compound: CC1=C(C(=CC=C1)Cl)NC(=O)C2=CN=C(S2)NC3=CC(=NC(=N3)C)N4CCN(CC4)CCO [Dasatinib]; conditions: max 2 µM
Outline: as §1

Gemcitabine = compound: Nc1ccn([C@@H]2O[C@H](CO)[C@@H](O)C2(F)F)c(=O)n1 [Gemcitabine]; conditions: max 0.3 µM
Outline: as §1

Selumetinib = compound: Cn1cnc2c(F)c(Nc3ccc(Br)cc3Cl)c(C(=O)NOCCO)cc21 [Selumetinib]; conditions: max 10 µM
Outline: as §1

Doxorubicin = compound: COc1cccc2c1C(=O)c1c(O)c3c(c(O)c1C2=O)C[C@@](O)(C(=O)CO)C[C@@H]3O[C@H]1C[C@H](N)[C@H](O)[C@H](C)O1 [Doxorubicin]; conditions: max 1 µM
Outline: as §1

Palbociclib = compound: CC(=O)c1c(C)c2cnc(Nc3ccc(N4CCNCC4)cn3)nc2n(C2CCCC2)c1=O [Palbociclib]; conditions: max 10 µM
Outline: as §1

Prexasertib = compound: COc1cccc(OCCCN)c1-c1cc(Nc2cnc(C#N)cn2)n[nH]1 [Prexasertib]; conditions: max 1 µM
Outline: as §1

5-Fluorouracil = compound: O=c1[nH]cc(F)c(=O)[nH]1 [5-Fluorouracil]; conditions: max 20 µM
Outline: as §1

Venetoclax = compound: CC1(C)CCC(CN2CCN(c3ccc(C(=O)NS(=O)(=O)c4ccc(NCC5CCOCC5)c([N+](=O)[O-])c4)c(Oc4cnc5[nH]ccc5c4)c3)CC2)=C(c2ccc(Cl)cc2)C1 [Venetoclax]; conditions: max 1 µM
Outline: as §1

MK-2206 = compound: NC1(c2ccc(-c3nc4ccn5c(=O)[nH]nc5c4cc3-c3ccccc3)cc2)CCC1 [MK-2206]; conditions: max 10 µM
Outline: as §1

[1] = compound: O=C(Nc1ccc2[nH]nc(-c3ccncc3)c2c1)[C@@H]1CCN(CC(=O)N2CCN(c3ccc(-c4ncccn4)cc3)CC2)C1; conditions: max 5 µM
Outline: as §1

AZD2811 = compound: CCN(CCO)CCCOc1ccc2c(Nc3cc(CC(=O)Nc4cccc(F)c4)[nH]n3)ncnc2c1 [AZD2811]; conditions: max 1 µM
Outline: as §1

Savolitinib = compound: C[C@@H](c1ccc2nccn2c1)n1nnc2ncc(-c3cnn(C)c3)nc21 [Savolitinib]; conditions: max 1 µM
Outline: as §1

AZD6738 = compound: C[C@@H]1COCCN1C2=NC(=NC(=C2)C3(CC3)[S@](=N)(=O)C)C4=C5C=CNC5=NC=C4 [AZD6738]; conditions: max 10 µM
Outline: as §1

Trametinib = compound: CC(=O)Nc1cccc(-n2c(=O)n(C3CC3)c(=O)c3c(Nc4ccc(I)cc4F)n(C)c(=O)c(C)c32)c1 [Trametinib]; conditions: max 1 µM
Outline: as §1

Carboplatin = compound: C1CC(C1)(C(=O)[O-])C(=O)[O-].N.N.[Pt+2] [Carboplatin]; conditions: max 10 µM
Outline: as §1

AZD7648 = compound: Cc1cc2ncnn2cc1Nc1ncc2c(n1)n(C1CCOCC1)c(=O)n2C [AZD7648]; conditions: max 10 µM
Outline: as §1

| Cell Line | IC50, cell viability 72 h (SN-38) | IC50, cell viability 72 h (AZD8186) | IC50, cell viability 72 h (Alisertib) | IC50, cell viability 72 h (Crizotinib) | IC50, cell viability 72 h (AZD1775) | IC50, cell viability 72 h (AZD1390) | IC50, cell viability 72 h (AZD0156) | IC50, cell viability 72 h (Taselisib) | IC50, cell viability 72 h (Etoposide) | IC50, cell viability 72 h (Gefitinib) | IC50, cell viability 72 h (AZD5363) | IC50, cell viability 72 h (AZD5153) | IC50, cell viability 72 h (Paclitaxel) | IC50, cell viability 72 h (SG3199) | IC50, cell viability 72 h (Olaparib) | IC50, cell viability 72 h (AZD5991) | IC50, cell viability 72 h (Lapatinib) | IC50, cell viability 72 h (AZD4320) | IC50, cell viability 72 h (SRA737) | IC50, cell viability 72 h (Dasatinib) | IC50, cell viability 72 h (Gemcitabine) | IC50, cell viability 72 h (Selumetinib) | IC50, cell viability 72 h (Doxorubicin) | IC50, cell viability 72 h (Palbociclib) | IC50, cell viability 72 h (Prexasertib) | IC50, cell viability 72 h (5-Fluorouracil) | IC50, cell viability 72 h (Venetoclax) | IC50, cell viability 72 h (MK-2206) | IC50, cell viability 72 h [1] | IC50, cell viability 72 h (AZD2811) | IC50, cell viability 72 h (Savolitinib) | IC50, cell viability 72 h (AZD6738) | IC50, cell viability 72 h (Trametinib) | IC50, cell viability 72 h (Carboplatin) | IC50, cell viability 72 h (AZD7648) |
| --- | --- | --- | --- | --- | --- | --- | --- | --- | --- | --- | --- | --- | --- | --- | --- | --- | --- | --- | --- | --- | --- | --- | --- | --- | --- | --- | --- | --- | --- | --- | --- | --- | --- | --- | --- |
| NCI-H1651 (Lung Adenocarcinoma) | 0.0221 µM | > 10 µM | > 10 µM | > 10 µM | 0.779 µM | > 0.3 µM | > 3 µM | > 10 µM | 6.01 µM | > 10 µM | > 10 µM | > 1 µM | 0.0217 µM | > 0.001 µM | > 10 µM | > 1 µM | > 10 µM | > 1 µM | > 10 µM | > 2 µM | > 0.3 µM | > 10 µM | 0.788 µM | > 10 µM | 0.0831 µM | > 20 µM | > 1 µM | > 10 µM | > 5 µM | > 1 µM | > 1 µM | > 10 µM | > 1 µM | > 10 µM | > 10 µM |
| NCI-H1703 (Squamous Cell Lung Carcinoma) | 0.0367 µM | 4.06 µM | 6.21 µM | 8.01 µM | 0.222 µM | > 0.3 µM | > 3 µM | 0.625 µM | 1.64 µM | > 10 µM | 6.66 µM | 0.4 µM | 0.00586 µM | > 0.001 µM | > 10 µM | 0.393 µM | > 10 µM | > 1 µM | 1.17 µM | 0.0478 µM | 0.00423 µM | > 10 µM | 0.142 µM | 9.73 µM | 0.00859 µM | > 20 µM | > 1 µM | 2.83 µM | > 5 µM | > 1 µM | > 1 µM | 0.917 µM | > 1 µM | > 10 µM | > 10 µM |
| NCI-H2087 (Lung Adenocarcinoma) | 0.0188 µM | > 10 µM | > 10 µM | > 10 µM | > 3 µM | > 0.3 µM | > 3 µM | > 10 µM | > 10 µM | > 10 µM | > 10 µM | > 1 µM | 0.225 µM | > 0.001 µM | > 10 µM | > 1 µM | > 10 µM | > 1 µM | > 10 µM | > 2 µM | 0.255 µM | 6.12 µM | > 1 µM | > 10 µM | 0.0962 µM | > 20 µM | > 1 µM | > 10 µM | 2.2 µM | > 1 µM | > 1 µM | > 10 µM | 0.35 µM | > 10 µM | > 10 µM |
